According to patent EP2497775A1, “Ferrocene-based compounds and their use as ROS regulating prodrugs” (Ruprecht-Karls-Universität Heidelberg, priority 2011, dated 2012):
Like-named read-outs stand apart in the source and are kept apart here.

Legend:
[1] = Release of iron ions from the prodrugs in the presence of hydrogen peroxide (2,2'-bipyridine absorbance); assay type: physicochemical; conditions: H2O2 (1 mM), 22°C, 100 min, MOPS buffer pH 7.5; relative to FeSO4 (100 µM)
Protocol: Monitoring release of iron ions from the prodrugs A-E, Comparative Example and control compounds in the presence of hydrogen peroxide (Table 1):
Solution of a ferrocene complex (10 µL, 10 mM in DMF containing 2% water and 1% sodium ascorbate) was diluted with MOPS buffer (990 µL, 100 mM, pH 7.5). Such probes were incubated with H2O2 (1 mM) at 22°C for 100 min. Then the reaction was quenched by adding sodium dithionite (20 µL, 1 M in water) that converts Fe^3+ into Fe^2+. Finally, 2,2'-bipyridine solution (3 µL, 100 mM in DMF) was added to form dark red [Fe(2,2'-bipyridine)3]^2+ complex (λmax= 519 nm). FeSO4 sulfate (100 µM) was used as a positive control to determine the absorbance intensity when the ferrocene complexes were completely converted by H2O2 to free Fe^2+. […] The data are provided in Table 2 and were determined by using the following formulae: iron release efficacy = (A519nm(prodrug) - A519nm(buffer)) / (A519nm(FeSO4) - A519nm(buffer)), where A519nm(prodrug) is absorbance at 519 nm of a prodrug treated with H2O2 and 2,2'-bipyridine as described above, A519nm(FeSO4) is absorbance at 519 nm of FeSO4 treated in a similar way as a prodrug and A519nm(buffer) is absorbance at 519 nm of the buffer only treated in a similar way as a prodrug.

[2] = test system: HL-60 cells; assay: Generation of ROS in cells (DCFH-DA, flow cytometry); assay type: cell-based, Human; conditions: 50 µM, 4 h
Protocol: Generation of ROS in HL-60 cells in the presence the prodrugs, comparative example C.-E. and controls (Table 3)
The probe of HL-60 cells was taken from the cultivation medium (RPMI 1640 supplemented with 10 % FCS, 1 % L-glutamine and 1% penicillin). The medium was replaced for PBS-buffer to obtain the cell suspension with 10^6 cells per mL. DCFH-DA solution (1 µL, 10 mM in DMSO) was added to the suspension (1 mL) and incubated in the dark chamber filled with CO2 (5 %) at 37 °C for 5 min. Then, the cells were washed with PBS and RPMI 1640 (5 % FCS, 1 % L-glutamine, 1% penicillin) medium and an iron complex (10 µL of stock solutions, solvent: DMF containing 2 % water and 1 % sodium ascorbate, final concentration of the complex - 50 µM) was added. After 4 h of the incubation the fluorescence of live cells (λex = 488 nm, λem = 530 nm) in the suspensions was determined by using the flow cytometer. Efficacy of ROS generation was determined using the following formulae: efficacy = (F(prodrug) - F0) / (F(FeSO4) - F0), where F(prodrug) is mean fluorescence intensity of cells incubated with a prodrug and treated as described above, F(FeSO4) is mean fluorescence intensity of cells incubated with FeSO4; F0 is mean fluorescence intensity of cells, which were not treated with any iron complex.

[3] = test system: HL60-cells; assay: Cell permeability of the prodrugs (boron/curcumin assay); assay type: cell-based, Human; conditions: 100 µM, 1 h, boron relative to comparative example C.-E.
Protocol: Assay for determination of cell Permeability of the prodrugs (Table 2) (according to the protocol described in J.Plant Nutr. Soil Sci. 1999,162,15-18) HL60-cells grown in RPMI 1640 medium supplemented with 10 % FCS, 1 % glutamine and 1% penicillin / streptomycin were centrifuged and the medium was replaced with RPMI 1640 medium (5 % FCS, 1 % L-glutamine, 1% penicillin) to obtain suspensions containing 10^6 cells per mL. Solutions of prodrugs (5 µL, solvent: DMF containing 2 % water and 1 % sodium ascorbate) were added to the suspensions (500 µL) and incubated for 1 h. The final concentration of the prodrugs in the suspensions was 100 µM. Then the cells were washed 3 times with PBS buffer (3 x 500 µL), treated with concentrated H2O2 solution (200 µL, 1 M) for 30 min and all volatiles were removed by lyophilization. Dry, lysed cells were washed with water (200 µL) and aqueous solution obtained was acidified with HCl (400 µL, 0.1 M). Then this solution was extracted with ethyl-1,3-hexandiol (100 µL, 10 % in CHCl3, v/v) and a portion of the organic phase obtained (40 µL) was mixed with H2SO4 / CH3CO2H (400 µL, 1/1, v/v). Curcumin solution in methylisobutylketone (500 µL, 2 mg in 1 mL of the solvent) was added and allowed to react for 24 h. The reaction was quenched by addition of water (1 mL). […] The value A(550 nm)-A(780 nm) was proportional to concentration of boron in the mixture. Amount of boron released from comparative example C.-E. was taken as a reference. All other values were determined relative to this reference. These values are compared in Table 2 with TLC retention factors, which are proportional to hydrophobicity of the prodrugs.

[4] = test system: Human promyelocytic leukemia cells (HL-60); assay: Viability of HL-60 cells (propidium iodide, flow cytometry); assay type: cell-based; conditions: read-out: Toxicity of the complexes: IC50
Protocol: Determination of viability of HL-60 cells (Table 4)
HL-60 cells grown in RPMI 1640 medium supplemented with 10 % FCS, 1 % L-glutamine and 1% penicillin were centrifuged, the medium was replaced with RPMI 1640 medium (5 % FCS, 1 % L-glutamine, 1% penicillin) to obtain suspensions containing 10^6 cells per mL. Stock solutions of prodrugs of different concentrations (5 µL, solvent: DMF containing 2 % water and 1 % sodium ascorbate) were added to the cellular suspensions (500 µL) and incubated for specific periods of time. Four experiments were conducted for each concentration of the prodrug. At the end of the incubation period propidium iodide (PI, 1 µL, 1.5 mM in water) was added to label leaky cells and in 5 min the suspension of the cells was analyzed by using flow cytometry.

[5] = TLC retention factor as measure of hydrophobicity; assay type: physicochemical; conditions: support - SiO2, eluent - hexane / ethyl acetate (3/1, v/v); proportional to hydrophobicity
[6] = Generation of ROS in vitro (DCFH fluorescence, cell-free); assay type: biochemical; conditions: iron complex 100 µM, H2O2 (10 mM), glutathione (5 mM), pH 7.5, relative to FeSO4
Protocol: Monitoring generation of ROS in the presence of the prodrugs A-E, Comparative Example and control compounds (Table 1):
2',7'-Dichlorfluorescin diacetate (DCFH-DA, 4.9 mg) was dissolved in DMF (100 µL) and mixed with aqueous NaOH (0.1 M, 900 µL). The resulting mixture was incubated for 30 min at 22°C in the dark to obtain the stock solution of 2',7'-dichlorfluorescin (DCFH, 10 mM). Next, the solution (1 mL) containing DCFH (10 µM), MOPS buffer (100 mM, pH 7.5), EDTA (10 mM), glutathione (5 mM) and H2O2 (10 mM) was prepared. Monitoring of fluorescence (λex= 501 nm, λem= 531 nm) of this solution was started. After 3 min, an iron complex (100 µM: ferrocene prodrugs A-E, Comparative Example, negative or positive controls 1 a, P) was added and the fluorescence monitoring was continued. Efficacy of ROS generation was then determined 17 and 37 min after the addition of the iron complex by using the following formulae: efficacy = (F(prodrug) - F0) / (F(FeSO4) - F0), where F(prodrug) is fluorescence of a mixture containing prodrug and treated as described above, F(FeSO4) is fluorescence of a mixture containing FeSO4; F0 is fluorescence of a mixture containing no iron complex.

[7] = Formation of ferrocenium ions in the presence of H2O2 (absorbance at 300 nm); assay type: physicochemical; conditions: 100 µM complex in dimethylformamide, 9.8 mM H2O2 (Figure 1)
Protocol: Figure 1: Iron complexes (100 µM) were dissolved in dimethylformamide and concentrated H2O2 solution (30 % in water, 1 µL) was added: final H2O2 concentration was 9.8 mM. Light absorbance at 300 nm was monitored as a function of time.
Monitoring formation of ferrocenium ions from the prodrugs A and B, as well as comparative example C.-E
Formation of ferrocenium ions from ferrocenes correlates with the increased light absorption in the region between 250 and 350 nm. In this spectral region […] have intense charge transfer transitions, whereas ferrocenes have only weak transitions (Y.S. Sohn, D.N. Hendrickson, H.B. Grey, J. Am. Chem. Soc., 1971, 93(15), 3603 - 3612).

[8] = test system: Fibroplasts; assay: Viability of fibroplasts (MTT); assay type: cell-based; conditions: Fibroplasts (normal cells); read-out: Toxicity of the complexes: IC50
Protocol: Determination of viability of fibroplasts (Table 4)
Cells were grown either in DMEM medium (Dulbecco's Modified Eagle's Medium) supplemented with 10 % FCS, 1 % L-glutamine and 1% streptomycin/ penicillin up to 80-90 % confluence. Then the cells were trypsinated, washed, re-suspended in the same medium and spread in wells of a 96-wells microtiter plate (-25.000 cells per well, per 100 µL) and left standing at 37 °C in the chamber filled with CO2 (5 %) for 5 h. Stock solutions of prodrugs of different concentrations (1 µL, solvent: DMF / water (1/3, v/v) containing 1 % sodium ascorbate) were added to the wells and incubated for specific periods of time. Four experiments were conducted for each concentration of the prodrug.

[9] = test system: MIRW5 (melanoma); conditions: cited from earlier work
[10] = test system: C480 (colon); conditions: cited from earlier work
[11] = test system: MCF-7 (breast); conditions: cited from earlier work
[12] = test system: BE (ovary); conditions: cited from earlier work
[13] = test system: A375 (melanoma); conditions: cited from earlier work
[14] = test system: HEY (ovary); conditions: cited from earlier work
[15] = test system: 8226-Dox 40 (myeloma); conditions: cited from earlier work
[16] = test system: C8161 (melanoma); conditions: cited from earlier work
[17] = test system: 8226 (myeloma); conditions: cited from earlier work
[18] = test system: CIN8/27B (myeloma); conditions: cited from earlier work
[19] = test system: MES-SA human uterine cancer; conditions: ref. [6]; cited from earlier work
[20] = 72 h incubation (value in brackets)

Compound | Efficacy of iron release in vitro [1] | Efficacy of ROS release in cells [2] | Relative efficiency of cell loading [3] | IC50 [4] | TLC-retention factor (Rf) [5] | Efficacy of ROS generation in vitro ([6]; 17 min incubation) | Efficacy of ROS generation in vitro ([6]; 37 min incubation) | also measured
4-((N-(4-ethylbenzyl)-N-Ferrocenylaminocarbonyl)oxymethyl)-2-phenylboronic acid pinacol ester [Prodrug D] | 0 | 0.03 ± 0.02 | 2.3 | 14 µM | 0.51 | 0.09 | 0.24 | IC50 ([4]; listed as prodrug D): 12 to 26 µM
4-((N-(4-methylbenzyl)-N-Ferrocenylaminocarbonyl)oxymethyl)-2-phenylboronic acid pinacol ester [Prodrug C] | 0 | – | 1.5 | 12 ± 1 µM | 0.50 | 0.10 | 0.42 | IC50 ([4]; listed as prodrug C): 12 to 26 µM
4-((N-Ethyl-N-Ferrocenylaminocarbonyl)oxymethyl)-2-phenylboronic acid pinacol ester [Prodrug A] | 0.72 | 0.06 ± 0.03 | – | 26 ± 3 µM | 0.47 | 0.50 | – | IC50 ([4]; listed as prodrug A): 12 to 26 µM
4-((N-Ferrocenylaminocarbonyl)oxymethyl)-2-methylphenylboronic acid pinacol ester [Prodrug E] | 0.74 | 0.04 ± 0.02 | – | 39 ± 4 µM | 0.45 | 0.52 | – | formation of ferrocenium ions [7]: rather decomposed with formation of iron ions
4-((N-benzyl-N-Ferrocenylaminocarbonyl)oxymethyl)-2-phenylboronic acid pinacol ester [Prodrug B] | 0.09 | 0.09 ± 0.02 | 1.8 | 12 ± 2 µM | 0.46 | 0.24 | 0.53 | IC50 [8]: > 50 µM; IC50 ([4]; listed as prodrug B): 12 to 26 µM
N=C1NC(=O)N2CC12 (stereo not drawn) [Imexon (Amplimexon), Imexon] | – | – | – | – | – | – | – | IC50 ([9]; 24 h incubation): 315 µM; IC50 [9, 20]: 63 µM; IC50 ([10]; 24 h incubation): 270 µM; IC50 [10, 20]: 135 µM; IC50 ([11]; 24 h incubation): 270 µM; IC50 [11, 20]: 450 µM; IC50 ([12]; 24 h incubation): 450 µM; IC50 [12, 20]: 270 µM; IC50 ([13]; 24 h incubation): 54 µM; IC50 [13, 20]: 45 µM; IC50 ([14]; 24 h incubation): 180 µM; IC50 [14, 20]: 270 µM; IC50 ([15]; 24 h incubation): 40 µM; IC50 [15, 20]: 36 µM; IC50 ([16]; 24 h incubation): 72 µM; IC50 [16, 20]: 135 µM; IC50 ([17]; 24 h incubation): 40 µM; IC50 [17, 20]: 41 µM; IC50 ([18]; 24 h incubation): 270 µM; IC50 [18, 20]: 90 µM
CC(=O)[O-].CC(=O)[O-].CCc1c(CC)c2cc3nc(cnc4cc(OCCOCCOCCOC)c(OCCOCCOCCOC)cc4ncc4nc(cc1[n-]2)C(CCCO)=C4C)C(C)=C3CCCO.[Gd+3] [Motexafin gadolinium] | – | – | – | – | – | – | – | IC50 [19]: ~12 µM
